# Data taken from the OligoGym collection.
# After the bases stand the sugars from the 5' end (letter, count) and the backbone: PS all phosphorothioate, else s phosphorothioate and o phosphodiester by linkage. Methylation of C is not given here. l = locked nucleic acid (LNA); d = 2'-deoxy (DNA)
# Target: SNHG14
# Conditions: ASO
# [1] = Mouse Primary Neuronal Cell, 0.005 µM
Sequence,"target mRNA inhibition (Human Neuronal Cell, 7.5 µM)","target mRNA inhibition (Human Neuronal Cell, 0.2 µM)","target mRNA inhibition (Human Neuronal Cell, 1 µM)",also measured
"TATTGATTCAATTCCCT (sugars l2 d12 l3, PS)",59%,–,–,–
"TTATAGCCATTCTATCT (sugars ldlddddddddldllll, PS)",49%,–,–,–
"ATCATTCTCAACAATTAAA (sugars llllldddddddlldldll, PS)",41%,–,–,–
"TACACTTAATTATACTTCCA (sugars lddldldddddddlldddll, PS)",55%,–,–,–
"CTTGTCAAATCATTTCT (sugars l4 d11 l2, PS)",–,47%,41%,–
"TATCTATTTAATTTACAC (sugars l3 d12 l3, PS)",–,8%,0%,–
"TATCAATATCTTCTCA (sugars l2 d10 l4, PS)",–,46%,61%,–
"CACCTGATAACAGACCCT (sugars l3 d12 l3, PS)",–,24%,16%,"target mRNA inhibition (Human Neuronal Cell, 5 µM): -10%"
"CTGTATACACCATCCCA (sugars lddddddddddldldll, PS)",49%,–,–,–
"ACTGTTTATACCCTTTC (sugars ldlddddddddldldll, PS)",63%,–,–,–
"TTTATCAATATCTTCTCAC (sugars lldldlddddddddldlll, PS)",63%,–,–,–
"TGTTTATACCCTTTCC (sugars l4 d10 l2, PS)",–,58%,56%,–
"TTAAATCCAGCATTCA (sugars l3 d10 l3, PS)",–,54%,66%,–
"ATTCAAAGCACACCACC (sugars l2 d12 l3, PS)",–,25%,32%,–
"CTGTATACACCATCCCA (sugars l1 d12 l1 d1 l2, PS)",58%,–,–,–
"ATCATTCTCAACAATTA (sugars l4 d11 l2, PS)",–,59%,70%,–
"AGCAACATTATTAACCACC (sugars l2 d11 l1 d3 l2, PS)",48%,–,–,–
"CTGTATACACCATCCCA (sugars lddldddddddddldll, PS)",49%,–,–,–
"TTATAGCCATTCTATCT (sugars l1 d10 l3 d1 l2, PS)",51%,–,–,–
"TTTATCAATATCTTCTCA (sugars lldldldddddddlldll, PS)",66%,–,–,–
"ACATCTCATACTTGCT (sugars l2 d12 l2, PS)",–,-13%,-7%,"target mRNA inhibition (Human Neuronal Cell, 5 µM): 4%; target mRNA inhibition [1]: 93.9%"
"TTTTTATACCTTTCTTTAAC (sugars ldlddldddddddlldddll, PS)",23%,–,–,–

Sequence,"target mRNA inhibition (Human Neuronal Cell, 7.5 µM)","target mRNA inhibition (Human Neuronal Cell, 0.2 µM)","target mRNA inhibition (Human Neuronal Cell, 1 µM)",also measured
"TTCCTTTAATGCTTCTA (sugars l4 d11 l2, PS)",–,55%,65%,–
"AGCAACATTATTAACCAC (sugars llldlddddddddlddll, PS)",46%,–,–,–
"CTTTCCAATGAATCTA (sugars l2 d10 l4, PS)",–,39%,55%,–
"GTTTCCATCTACTATTAA (sugars ldldllddddddddddll, PS)",58%,–,–,–
"GCAACATTATTAACCACCT (sugars ldlddlddddddlldddll, PS)",44%,–,–,–
"AAAATCTCAACTACCATTTT (sugars lldldlddddddddlldlll, PS)",24%,–,–,–
"AACTCTCACTGTAACTT (sugars l3 d11 l3, PS)",–,32%,42%,–
"CAAAGATCATTCTCAAC (sugars l2 d1 l1 d7 l6, PS)",26%,–,–,–
"TATACCTTTCTTTAACCCTT (sugars ldddlddddddddddlddll, PS)",54%,–,–,–
"GCACATTCTTTCTATAC (sugars l3 d12 l2, PS)",52%,–,–,–
"GTTACCTACATCTCATA (sugars l2 d13 l2, PS)",–,-14%,11%,"target mRNA inhibition (Human Neuronal Cell, 5 µM): 13%; target mRNA inhibition [1]: 81%"
"ATCATTCTCAACAATTAAA (sugars l1 d1 l4 d6 l7, PS)",13%,–,–,–
"TAAAGATCCCATCACT (sugars l4 d10 l2, PS)",–,31%,50%,–
"TTTATTAGATTACTCC (sugars l2 d10 l4, PS)",–,24%,17%,–
"TTTATCAATATCTTCTCACT (sugars ldddddldddddddlddlll, PS)",45%,–,–,–
"TTATTCTTACCGTCTTT (sugars l2 d11 l4, PS)",–,61%,65%,–
"TACACTTAATTATACTTCCA (sugars l1 d2 l1 d13 l3, PS)",54%,–,–,–
"TGAAAATCTCAACTACCAT (sugars lldlldddddddlddldll, PS)",46%,–,–,–
"CTTACCAATAGTTACCT (sugars l3 d11 l3, PS)",–,49%,54%,–
"TATCTTTCCATTTATTTCCA (sugars lddddlddddddddllddll, PS)",50%,–,–,–
"TCAAGAATTCTCTCCTT (sugars l2 d11 l4, PS)",–,47%,51%,–
"TTTATCAATATCTTCTCACT (sugars lddlddldddddddddddll, PS)",28%,–,–,–

Sequence,"target mRNA inhibition (Human Neuronal Cell, 7.5 µM)","target mRNA inhibition (Human Neuronal Cell, 0.2 µM)","target mRNA inhibition (Human Neuronal Cell, 1 µM)",also measured
"TCCATGCTACATAAAC (sugars l4 d10 l2, PS)",–,52%,56%,–
"ACCTACATCTCATACTT (sugars l3 d11 l3, PS)",–,1%,-10%,"target mRNA inhibition (Human Neuronal Cell, 5 µM): 6%; target mRNA inhibition [1]: 94.2%"
"ATTGATTCAATTCCCTT (sugars ldllddddddddlddll, PS)",74%,–,–,–
"ATATACCCAAAGGCACCT (sugars l3 d12 l3, PS)",–,-13%,15%,"target mRNA inhibition (Human Neuronal Cell, 5 µM): 21%"
"GTTTCCATCTACTATTAA (sugars ldlllddddddddlddll, PS)",49%,–,–,–
"TTTCCATTTATTTCCATTT (sugars lddddldddddddldllll, PS)",54%,–,–,–
"AAAATCTCAACTACCATTT (sugars l6 d6 l2 d2 l3, PS)",23%,–,–,–
"CAACATTATTAACCACCTT (sugars l3 d11 l2 d1 l2, PS)",51%,–,–,–
"ACTGTTTATACCCTTTCC (sugars l1 d3 l1 d11 l2, PS)",49%,–,–,–
"TTTATCAATATCTTCTCA (sugars lddddlddddddldllll, PS)",61%,–,–,–
"TGCTCACTAACTACAC (sugars l3 d10 l3, PS)",–,22%,9%,–
"TCATTGAACAACTCTTC (sugars l4 d11 l2, PS)",–,31%,17%,–
"TTTATACCTTTCTTTAACCC (sugars l1 d14 l1 d2 l2, PS)",53%,–,–,–
"ACTCTGCAATACACCA (sugars l3 d10 l3, PS)",–,52%,56%,–
"TTCTGTATACACCATCC (sugars l1 d2 l1 d11 l2, PS)",56%,–,–,–
"AGCAACATTATTAACCACC (sugars l1 d15 l3, PS)",38%,–,–,–
"TACATTATTATTTAACC (sugars l4 d11 l2, PS)",–,11%,6%,–
"TCAAAGCACACCACCAC (sugars l2 d12 l3, PS)",–,34%,47%,–
"TTTACACTTAATTATACTTC (sugars ldlllddddddddlllddll, PS)",48%,–,–,–
"ATCTCATGACCACCTAA (sugars ldlddddddddddldll, PS)",61%,–,–,–
"CCATTTATTTCCATTTATT (sugars lddlllddddddldddlll, PS)",54%,–,–,–
"GTTCTACTATACTTTCCT (sugars l1 d14 l3, PS)",46%,–,–,–

Sequence,"target mRNA inhibition (Human Neuronal Cell, 7.5 µM)","target mRNA inhibition (Human Neuronal Cell, 0.2 µM)","target mRNA inhibition (Human Neuronal Cell, 1 µM)",also measured
"GCACATTCTTTCTATAC (sugars ldldlddddddlddlll, PS)",49%,–,–,–
"TATTGATTCAATTCCCT (sugars lldddddddddldldll, PS)",60%,–,–,–
"TTGTCAATCTTTATTCT (sugars l4 d11 l2, PS)",–,33%,45%,–
"CAAAGATCATTCTCAACA (sugars l2 d1 l1 d9 l5, PS)",69%,–,–,–
"CTTTTAACCAGAGTGGCATC (sugars l2 d16 l2, PS)",57%,–,–,–
"ATTTACACTTAATTATACTT (sugars llldlddddddddlldllll, PS)",27%,–,–,–
"TACCTACATCTCATACT (sugars l4 d11 l2, PS)",–,-53%,-18%,"target mRNA inhibition (Human Neuronal Cell, 5 µM): 11%; target mRNA inhibition [1]: 94.4%"
"CTGTATACACCATCCCA (sugars lddldddddddldddll, PS)",55%,–,–,–
"ACTTCCAGATTTCTACA (sugars l2 d11 l4, PS)",–,54%,63%,–
"TACTCTGCAATACACCA (sugars ldddlddddddddldll, PS)",68%,–,–,–
"TATTGATTCAATTCCCT (sugars l2 d11 l4, PS)",–,58%,71%,–
"TTTTTTCTTACTATCTTCAA (sugars ldldldldddddddldddll, PS)",57%,–,–,–
"GCTCCATATTTAAATC (sugars l4 d10 l2, PS)",–,7%,20%,–
"TCTCATGACCACCTAA (sugars l2 d10 l4, PS)",–,39%,54%,–
"ACTGTTTATACCCTTTC (sugars ldddlddddddlddlll, PS)",53%,–,–,–
"TTACACTTAATTATACTTCC (sugars ldllddldddddddldddll, PS)",64%,–,–,–
"CAAAGATCATTCTCAAC (sugars l3 d8 l6, PS)",53%,–,–,–
"TTTATCAATATCTTCTCACT (sugars lddlddddddddddlddlll, PS)",53%,–,–,–
"TTATAGCCATTCTATCT (sugars l3 d9 l1 d2 l2, PS)",52%,–,–,–
"ATCATTCTCAACAATTAAA (sugars l4 d8 l7, PS)",27%,–,–,–
"TCTACCCTAAATTCCC (sugars l2 d11 l3, PS)",–,14%,29%,–
"GTTACATATTCTTTCAC (sugars l3 d11 l3, PS)",–,53%,67%,–
